{"source": "patent US6054475A", "about": "“Substituted dihydrobenzofuran-based phosphodiesterase 4 inhibitors useful for treating airway disorders” (Byk Gulden Lomberg Chemische Fabrik GmbH, priority 1996, dated 2000)", "test_system": "PDE4", "assay": "Inhibition of PDE4 activity (method of Bauer and Schwabe, adapted to microtiter plates)", "type": "biochemical", "conditions": "Table A; inhibitory concentrations as -log IC50 (mol/l)", "procedure": "The activity test was carried out according to the method of Bauer and Schwabe, which was adapted to microtiter plates (Naunyn-Schmiedeberg's Arch. Pharmacol. 311, 193-198, 1980). The PDE reaction takes place here in the first step. In a second step, the resulting 5'-nucleotide is cleaved to give the uncharged nucleoside by a 5'-nucleotidase of the snake venom from Crotalus atrox. In the third step, the nucleoside is separated from the remaining charged substrate on ion exchange columns. Using 2 ml of 30 mM ammonium formate (pH 6.0), the columns are eluted directly into minivials to which is additionally added 2 ml of scintillator fluid for counting."}
{"smiles": "COc1ccc([C@]2(C#N)CC[C@@H](C(=O)O)CC2)c2c1OC1(CCCC1)C2", "note": "[Compound 2.1, cis-4-Cyano-4-(2,3-dihydro-7-methoxybenzofuran-2-spiro-1'-cyclopentan-4-yl)cyclohexane-1-carboxylic acid]", "values": [{"measurement": "-log IC50 (inhibition of PDE4 activity)", "value": 8.22}]}
{"smiles": "COc1ccc([C@]2(C#N)CC[C@@H](C(=O)O)CC2)c2c1OC1(CCOCC1)C2", "note": "[Compound 4, cis-4-Cyano-4-(2,3-dihydro-7-methoxybenzofuran-2-spiro-4'-tetrahydropyran-4-yl)cyclohexane-1-carboxylic acid]", "values": [{"measurement": "-log IC50 (inhibition of PDE4 activity)", "value": 7.69}]}
{"smiles": "COc1ccc([C@]2(C#N)CC[C@@H](C(N)=O)CC2)c2c1OC1(CCCC1)C2", "note": "[Compound 5, cis-4-Cyano-4-(2,3-dihydro-7-methoxybenzofuran-2-spiro-1'-cyclopentan-4-yl)cyclohexane-1-carboxamide]", "values": [{"measurement": "-log IC50 (inhibition of PDE4 activity)", "value": 8.31}]}
{"smiles": "COc1ccc([C@]2(C#N)CC[C@@H](C(N)=O)CC2)c2c1OC1(CCOCC1)C2", "note": "[Compound 6, cis-4-Cyano-4-(2,3-dihydro-7-methoxybenzofuran-2-spiro-4'-tetrahydropyran-4-yl)cyclohexane-1-carboxamide]", "values": [{"measurement": "-log IC50 (inhibition of PDE4 activity)", "value": 7.65}]}
{"smiles": "COc1ccc([C@]2(C#N)CC[C@@H](C(=O)NO)CC2)c2c1OC1(CCCC1)C2", "note": "[Compound 7, cis-4-Cyano-4-(2,3-dihydro-7-methoxybenzofuran-2-spiro-1'-cyclopentan-4-yl)cyclohexane-1-carboxylic acid hydroxylamide]", "values": [{"measurement": "-log IC50 (inhibition of PDE4 activity)", "value": 7.52}]}
{"smiles": "COc1ccc([C@]2(C#N)CC[C@@H](OP(=O)(O)Oc3ccccc3)CC2)c2c1OC1(CCCC1)C2", "note": "[Compound 8, cis-4-Cyano-4-(2,3-dihydro-7-methoxybenzofuran-2-spiro-1'-cyclopentan-4-yl)cyclohexyl-1-phenyl phosphate]", "values": [{"measurement": "-log IC50 (inhibition of PDE4 activity)", "value": 7.44}]}
{"smiles": "COc1ccc(C2(C#N)CCOCC2)c2c1OC1(CCCC1)C2", "note": "[Compound 9, 4-a-Cyano-4-e-(2,3-dihydro-7-methoxybenzofuran-2-spiro-1'-cyclopentan-4-yl)tetrahydropyran]", "values": [{"measurement": "-log IC50 (inhibition of PDE4 activity)", "value": 8.26}]}
{"smiles": "COc1ccc(C2(C#N)CCS(=O)(=O)CC2)c2c1OC1(CCCC1)C2", "note": "[Compound 11, 1,1-Dioxo-4-a-cyano-4-e-(2,3-dihydro-7-methoxybenzofuran-2-spiro-1'-cyclopentan-4-yl)tetrahydro-1-thiopyran]", "values": [{"measurement": "-log IC50 (inhibition of PDE4 activity)", "value": 7.72}]}
{"smiles": "COc1ccc(C2(OC)CCOCC2)c2c1OC1(CCCC1)C2", "note": "[Compound 13, 4-a-Methoxy-4-e-(2,3-dihydro-7-methoxybenzofuran-2-spiro-1'-cyclopentan-4-yl)tetrahydropyran]", "values": [{"measurement": "-log IC50 (inhibition of PDE4 activity)", "value": 7.41}]}
{"smiles": "COc1ccc(C2(C#N)CCC(=NO)CC2)c2c1OC1(CCCC1)C2", "note": "(centres unmarked) [Compound 14, 4-a-Cyano-4-e-(2,3-dihydro-7-methoxybenzofuran-2-spiro-1'-cyclopentan-4-yl)cyclohexan-1-one oxime]", "values": [{"measurement": "-log IC50 (inhibition of PDE4 activity)", "value": 7.78}]}
{"smiles": "COc1ccc(C2(C#N)CCNC(=O)CC2)c2c1OC1(CCCC1)C2", "note": "(centres unmarked) [Compound 16, 7-Oxo-4-cyano-4-(2,3-dihydro-7-methoxybenzofuran-2-spiro-1'-cyclopentan-4-yl)hexahydroazepine]", "values": [{"measurement": "-log IC50 (inhibition of PDE4 activity)", "value": 7.96}]}
